{
  "source": "paper PMC7206119",
  "about": "“RIP1 inhibition blocks inflammatory diseases but not tumor growth or metastases” (Cell Death and Differentiation, 2019)",
  "test_in_all_cases": "biochemical",
  "parameters_in_all_cases": "Thermo Fisher SelectScreen kinase panel: Z'-LYTE and Adapta activity, LanthaScreen binding",
  "key": {"CDK5/p25": {"biological_target": "T1, CDK5/p25 (Homo sapiens, UniProt Q00535)", "T1 construct": "p25", "procedure": "(§1) 5 88 GNE684 was tested in Thermo Fisher Scientific SelectScreen assay (Madison, WI) 89 against 221 representative kinases at a concentration of 10 µM, which is 476-fold greater than the Ki app 90 for GNE684 against human RIP1 in the RIP1 enzyme 91 assay. The kinase assays were carried out using Z'-LYTE and Adapta activity and 92 LanthaScreen binding assays (Thermo Fisher Scientific, Madison WI) following 93 protocols developed and performed by Thermo Fisher Scientific 94 (https://www.thermofisher.com/us/en/home/products-and-services/services/custom-95 services/screening-and-profiling-services/selectscreen-profiling-service/selectscreen-96 kinase-profiling-service.html). 97 GNE684 was also tested against 468 kinases in the KINOMEscan scanMAX kinase 98 binding assay panel at a concentration of 10 µM following protocols developed and 99 performed by DiscoverX (http://www.discoverx.com/kinase_profiling)."}, "CHK2": {"biological_target": "T2, CHK2 (Homo sapiens, UniProt O96017)", "T2 construct": "gene CHEK2", "T2 sequence (O96017 whole entry)": "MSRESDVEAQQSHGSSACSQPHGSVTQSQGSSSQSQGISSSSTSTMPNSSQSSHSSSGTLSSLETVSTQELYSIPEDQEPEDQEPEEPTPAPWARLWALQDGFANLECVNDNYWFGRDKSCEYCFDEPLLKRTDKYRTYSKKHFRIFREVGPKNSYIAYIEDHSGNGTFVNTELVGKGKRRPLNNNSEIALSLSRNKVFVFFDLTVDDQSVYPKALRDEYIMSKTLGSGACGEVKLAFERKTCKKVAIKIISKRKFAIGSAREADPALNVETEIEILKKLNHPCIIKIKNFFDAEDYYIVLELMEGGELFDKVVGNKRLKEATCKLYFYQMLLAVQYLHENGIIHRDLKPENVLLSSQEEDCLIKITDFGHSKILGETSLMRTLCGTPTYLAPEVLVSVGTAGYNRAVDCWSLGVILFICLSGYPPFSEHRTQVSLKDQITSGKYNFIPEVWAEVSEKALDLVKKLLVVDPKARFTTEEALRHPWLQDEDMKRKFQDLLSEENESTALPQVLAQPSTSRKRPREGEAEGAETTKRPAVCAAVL", "procedure": "as §1"}, "CLK2": {"biological_target": "CLK2 (Homo sapiens, UniProt P49760)", "procedure": "as §1"}, "CLK3": {"biological_target": "CLK3 (Homo sapiens, UniProt P49761)", "procedure": "as §1"}, "CSF1R": {"biological_target": "CSF1R (Homo sapiens, UniProt P07333)", "procedure": "as §1"}, "CamKII_alpha": {"biological_target": "T3, CamKII_alpha (Homo sapiens, UniProt Q9UQM7)", "T3 construct": "gene CAMK2A", "T3 sequence (Q9UQM7 whole entry)": "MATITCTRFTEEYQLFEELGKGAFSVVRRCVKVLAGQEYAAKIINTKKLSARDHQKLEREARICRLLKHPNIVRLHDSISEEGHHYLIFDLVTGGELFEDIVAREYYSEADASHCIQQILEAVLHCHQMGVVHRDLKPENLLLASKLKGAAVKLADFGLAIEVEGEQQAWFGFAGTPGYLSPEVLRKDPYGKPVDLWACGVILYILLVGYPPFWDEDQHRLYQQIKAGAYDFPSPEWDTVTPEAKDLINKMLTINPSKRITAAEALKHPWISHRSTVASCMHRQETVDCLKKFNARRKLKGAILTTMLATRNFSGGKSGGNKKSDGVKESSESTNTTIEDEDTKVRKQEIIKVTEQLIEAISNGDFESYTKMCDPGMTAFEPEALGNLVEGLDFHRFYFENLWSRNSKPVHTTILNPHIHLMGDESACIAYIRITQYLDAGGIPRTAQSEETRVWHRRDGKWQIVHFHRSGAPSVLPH", "procedure": "as §1"}, "DCAMKL2": {"biological_target": "T4, DCAMKL2 (Homo sapiens, UniProt Q8N568)", "T4 construct": "gene DCLK2", "procedure": "as §1"}, "EPHB3": {"biological_target": "EPHB3 (Homo sapiens, UniProt P54753)", "procedure": "as §1"}, "FGFR3": {"biological_target": "FGFR3 (Homo sapiens, UniProt P22607)", "procedure": "as §1"}, "FLT3": {"biological_target": "FLT3 (Homo sapiens, UniProt P36888)", "procedure": "as §1"}, "MAPKAPK2": {"biological_target": "MAPKAPK2 (Homo sapiens, UniProt P49137)", "procedure": "as §1"}, "MET": {"biological_target": "MET (Homo sapiens, UniProt P08581)", "procedure": "as §1"}, "MSK1": {"biological_target": "T5, MSK1 (Homo sapiens, UniProt O75582)", "T5 construct": "gene RPS6KA5", "T5 sequence (O75582 whole entry)": "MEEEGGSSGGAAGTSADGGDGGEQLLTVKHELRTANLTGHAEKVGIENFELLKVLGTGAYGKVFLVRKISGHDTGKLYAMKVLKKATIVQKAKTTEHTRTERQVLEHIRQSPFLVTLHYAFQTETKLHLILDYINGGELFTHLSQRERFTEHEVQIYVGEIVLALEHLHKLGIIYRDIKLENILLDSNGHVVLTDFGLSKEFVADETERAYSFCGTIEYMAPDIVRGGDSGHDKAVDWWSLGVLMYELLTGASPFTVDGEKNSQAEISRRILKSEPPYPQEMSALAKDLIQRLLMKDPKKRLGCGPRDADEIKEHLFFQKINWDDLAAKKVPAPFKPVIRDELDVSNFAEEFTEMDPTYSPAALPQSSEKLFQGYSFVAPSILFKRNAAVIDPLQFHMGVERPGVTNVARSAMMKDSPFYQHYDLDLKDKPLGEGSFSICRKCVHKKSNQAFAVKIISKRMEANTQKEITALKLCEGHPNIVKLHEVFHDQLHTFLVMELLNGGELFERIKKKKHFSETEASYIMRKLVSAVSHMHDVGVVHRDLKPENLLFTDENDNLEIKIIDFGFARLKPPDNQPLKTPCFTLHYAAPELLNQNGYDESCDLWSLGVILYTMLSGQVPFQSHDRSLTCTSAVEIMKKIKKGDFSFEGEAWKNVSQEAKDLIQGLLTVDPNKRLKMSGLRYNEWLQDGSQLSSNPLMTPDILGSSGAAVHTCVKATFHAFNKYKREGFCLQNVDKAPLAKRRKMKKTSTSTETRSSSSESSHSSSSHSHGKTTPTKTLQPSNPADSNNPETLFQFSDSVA", "procedure": "as §1"}, "MST2": {"biological_target": "T6, MST2 (Homo sapiens, UniProt Q13188)", "T6 construct": "gene STK3", "procedure": "as §1"}, "MTOR": {"biological_target": "MTOR (Homo sapiens, UniProt P42345)", "procedure": "as §1"}, "NEK6": {"biological_target": "NEK6 (Homo sapiens, UniProt Q9HC98)", "sequence (Q9HC98 whole entry)": "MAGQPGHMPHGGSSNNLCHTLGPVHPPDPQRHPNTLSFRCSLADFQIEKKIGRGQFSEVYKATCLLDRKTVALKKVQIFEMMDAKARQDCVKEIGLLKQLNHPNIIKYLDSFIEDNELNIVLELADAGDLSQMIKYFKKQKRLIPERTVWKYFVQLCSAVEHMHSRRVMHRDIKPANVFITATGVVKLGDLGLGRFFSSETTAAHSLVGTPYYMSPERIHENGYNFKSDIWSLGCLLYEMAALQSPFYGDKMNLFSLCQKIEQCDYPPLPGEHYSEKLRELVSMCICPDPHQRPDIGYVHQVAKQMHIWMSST", "procedure": "as §1"}, "PKD1": {"biological_target": "T7, PKD1 (Homo sapiens, UniProt Q15139)", "T7 construct": "gene PRKD1", "procedure": "as §1"}, "PhK_gamma1": {"biological_target": "T8, PhK_gamma1 (Homo sapiens, UniProt Q16816)", "T8 construct": "gene PHKG1", "procedure": "as §1"}, "ROCK1": {"biological_target": "ROCK1 (Homo sapiens, UniProt Q13464)", "procedure": "as §1"}, "RSK3": {"biological_target": "T9, RSK3 (Homo sapiens, UniProt Q15349)", "T9 construct": "gene RPS6KA2", "T9 sequence (Q15349 whole entry)": "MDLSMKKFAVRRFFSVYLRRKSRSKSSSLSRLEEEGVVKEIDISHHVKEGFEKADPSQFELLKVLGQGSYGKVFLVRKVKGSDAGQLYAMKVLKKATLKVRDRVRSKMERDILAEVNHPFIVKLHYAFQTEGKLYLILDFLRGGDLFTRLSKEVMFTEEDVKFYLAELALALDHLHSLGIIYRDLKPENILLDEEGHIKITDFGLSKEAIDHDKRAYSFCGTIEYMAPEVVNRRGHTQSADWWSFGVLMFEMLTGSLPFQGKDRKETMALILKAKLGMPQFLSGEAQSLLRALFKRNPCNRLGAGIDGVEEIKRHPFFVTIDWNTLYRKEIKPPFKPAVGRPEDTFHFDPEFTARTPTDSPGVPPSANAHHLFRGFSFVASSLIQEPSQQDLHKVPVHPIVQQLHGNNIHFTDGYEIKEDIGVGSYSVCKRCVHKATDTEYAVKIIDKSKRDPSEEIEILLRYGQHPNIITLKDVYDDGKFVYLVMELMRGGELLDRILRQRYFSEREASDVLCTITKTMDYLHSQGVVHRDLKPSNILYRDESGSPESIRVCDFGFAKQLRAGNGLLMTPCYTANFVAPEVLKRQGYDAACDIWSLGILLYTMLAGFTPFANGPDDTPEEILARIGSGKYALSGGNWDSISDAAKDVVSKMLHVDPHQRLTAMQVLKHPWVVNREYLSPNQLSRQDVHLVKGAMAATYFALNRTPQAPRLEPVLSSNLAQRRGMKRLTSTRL", "procedure": "as §1"}, "Srm": {"biological_target": "T10, Srm (Homo sapiens, UniProt Q9H3Y6)", "T10 construct": "gene SRMS", "T10 sequence (Q9H3Y6 whole entry)": "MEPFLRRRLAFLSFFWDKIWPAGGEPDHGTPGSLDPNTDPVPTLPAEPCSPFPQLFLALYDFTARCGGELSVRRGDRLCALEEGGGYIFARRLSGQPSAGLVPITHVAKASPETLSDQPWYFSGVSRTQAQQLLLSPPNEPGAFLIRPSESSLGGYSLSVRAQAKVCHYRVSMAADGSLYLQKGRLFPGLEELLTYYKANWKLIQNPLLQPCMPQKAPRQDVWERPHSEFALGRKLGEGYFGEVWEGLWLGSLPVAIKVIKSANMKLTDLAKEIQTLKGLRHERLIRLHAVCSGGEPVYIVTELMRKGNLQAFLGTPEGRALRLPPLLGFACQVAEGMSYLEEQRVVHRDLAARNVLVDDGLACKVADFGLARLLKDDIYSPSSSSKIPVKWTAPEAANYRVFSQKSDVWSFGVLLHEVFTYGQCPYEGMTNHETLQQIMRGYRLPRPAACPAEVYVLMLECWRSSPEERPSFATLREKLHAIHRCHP", "procedure": "as §1"}, "TAO2": {"biological_target": "T11, TAO2 (Homo sapiens, UniProt Q9UL54)", "T11 construct": "gene TAOK2", "T11 sequence (Q9UL54 whole entry)": "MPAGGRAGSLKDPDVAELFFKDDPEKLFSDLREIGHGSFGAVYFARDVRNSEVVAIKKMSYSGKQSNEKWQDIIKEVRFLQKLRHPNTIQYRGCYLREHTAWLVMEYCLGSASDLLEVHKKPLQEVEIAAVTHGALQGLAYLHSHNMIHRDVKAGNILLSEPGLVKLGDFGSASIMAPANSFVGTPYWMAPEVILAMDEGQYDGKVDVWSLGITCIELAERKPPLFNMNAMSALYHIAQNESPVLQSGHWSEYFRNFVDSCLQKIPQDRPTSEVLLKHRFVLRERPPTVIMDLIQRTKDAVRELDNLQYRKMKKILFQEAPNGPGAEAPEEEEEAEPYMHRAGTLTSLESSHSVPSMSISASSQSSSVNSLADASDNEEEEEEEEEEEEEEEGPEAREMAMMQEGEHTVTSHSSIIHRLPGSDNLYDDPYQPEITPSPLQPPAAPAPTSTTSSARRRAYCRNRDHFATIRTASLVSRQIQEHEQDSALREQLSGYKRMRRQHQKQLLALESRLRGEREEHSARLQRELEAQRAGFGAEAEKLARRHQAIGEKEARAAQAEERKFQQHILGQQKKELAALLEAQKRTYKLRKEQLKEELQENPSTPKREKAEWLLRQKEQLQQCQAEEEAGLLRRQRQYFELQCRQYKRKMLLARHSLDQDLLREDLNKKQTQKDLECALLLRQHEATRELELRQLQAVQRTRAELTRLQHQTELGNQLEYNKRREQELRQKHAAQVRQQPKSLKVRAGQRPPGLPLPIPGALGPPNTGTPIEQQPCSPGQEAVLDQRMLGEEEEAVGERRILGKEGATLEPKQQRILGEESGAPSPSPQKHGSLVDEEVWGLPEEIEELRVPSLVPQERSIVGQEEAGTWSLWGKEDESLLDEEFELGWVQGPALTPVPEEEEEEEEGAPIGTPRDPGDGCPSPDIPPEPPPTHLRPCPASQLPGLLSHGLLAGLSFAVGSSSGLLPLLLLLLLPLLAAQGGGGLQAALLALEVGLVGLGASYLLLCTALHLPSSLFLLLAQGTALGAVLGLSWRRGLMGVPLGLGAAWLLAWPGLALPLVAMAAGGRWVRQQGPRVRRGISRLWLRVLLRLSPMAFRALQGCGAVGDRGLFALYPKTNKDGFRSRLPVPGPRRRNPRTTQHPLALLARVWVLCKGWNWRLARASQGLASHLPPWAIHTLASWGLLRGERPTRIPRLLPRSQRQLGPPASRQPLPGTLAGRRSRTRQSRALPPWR", "procedure": "as §1"}, "YSK1": {"biological_target": "T12, YSK1 (Homo sapiens, UniProt O00506)", "T12 construct": "gene STK25", "T12 sequence (O00506 whole entry)": "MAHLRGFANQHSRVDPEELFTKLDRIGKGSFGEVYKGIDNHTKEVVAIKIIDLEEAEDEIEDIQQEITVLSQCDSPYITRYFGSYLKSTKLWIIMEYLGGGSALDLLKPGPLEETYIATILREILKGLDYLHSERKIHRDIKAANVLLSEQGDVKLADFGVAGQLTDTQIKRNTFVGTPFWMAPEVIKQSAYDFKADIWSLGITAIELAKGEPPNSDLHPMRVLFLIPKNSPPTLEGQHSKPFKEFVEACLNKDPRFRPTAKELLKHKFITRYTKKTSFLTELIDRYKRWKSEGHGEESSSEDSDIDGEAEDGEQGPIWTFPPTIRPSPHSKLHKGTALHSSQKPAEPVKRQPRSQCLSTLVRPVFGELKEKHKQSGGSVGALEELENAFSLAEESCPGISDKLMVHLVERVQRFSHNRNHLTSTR", "procedure": "as §1"}},
  "data": [
    {"compound": "COc1cc2c(cn1)N(C)C(=O)[C@@H](NC(=O)c1nc3n(n1)[C@H](c1ccccc1)CC3)CC2", "note": "[GNE684, (S)-N-((S)-7-methoxy-1-methyl-2-oxo-2,3,4,5-tetrahydro-1H-pyrido[3,4-b]azepin-3-yl)-5-phenyl-6,7-dihydro-5H-pyrrolo[1,2-b][1,2,4]triazole-2-carboxamide]", "values": [
      {"measurement": "inhibition at 10 µM", "setting": "CDK5/p25", "result": 4.5, "unit": "%"},
      {"measurement": "inhibition at 10 µM", "setting": "CHK2", "result": 5, "unit": "%"},
      {"measurement": "inhibition at 10 µM", "setting": "CLK2", "result": 2.5, "unit": "%"},
      {"measurement": "inhibition at 10 µM", "setting": "CLK3", "result": 1.5, "unit": "%"},
      {"measurement": "inhibition at 10 µM", "setting": "CSF1R", "result": 2, "unit": "%"},
      {"measurement": "inhibition at 10 µM", "setting": "CamKII_alpha", "result": 6.5, "unit": "%"},
      {"measurement": "inhibition at 10 µM", "setting": "DCAMKL2", "result": 2, "unit": "%"},
      {"measurement": "inhibition at 10 µM", "setting": "EPHB3", "result": 3.5, "unit": "%"},
      {"measurement": "inhibition at 10 µM", "setting": "FGFR3", "result": -1.5, "unit": "%"},
      {"measurement": "inhibition at 10 µM", "setting": "FLT3", "result": 10, "unit": "%"},
      {"measurement": "inhibition at 10 µM", "setting": "MAPKAPK2", "result": 4.5, "unit": "%"},
      {"measurement": "inhibition at 10 µM", "setting": "MET", "result": -2, "unit": "%"},
      {"measurement": "inhibition at 10 µM", "setting": "MSK1", "result": -4, "unit": "%"},
      {"measurement": "inhibition at 10 µM", "setting": "MST2", "result": 5, "unit": "%"},
      {"measurement": "inhibition at 10 µM", "setting": "MTOR", "result": 2, "unit": "%"},
      {"measurement": "inhibition at 10 µM", "setting": "NEK6", "result": -2, "unit": "%"},
      {"measurement": "inhibition at 10 µM", "setting": "PKD1", "result": 3, "unit": "%"},
      {"measurement": "inhibition at 10 µM", "setting": "PhK_gamma1", "result": 0, "unit": "%"},
      {"measurement": "inhibition at 10 µM", "setting": "ROCK1", "result": 1, "unit": "%"},
      {"measurement": "inhibition at 10 µM", "setting": "RSK3", "result": 6, "unit": "%"},
      {"measurement": "inhibition at 10 µM", "setting": "Srm", "result": 9, "unit": "%"},
      {"measurement": "inhibition at 10 µM", "setting": "TAO2", "result": 1, "unit": "%"},
      {"measurement": "inhibition at 10 µM", "setting": "YSK1", "result": 3.5, "unit": "%"}
    ]}
  ]
}
